From patent US20250221963A1 (GH RESEARCH IRELAND LIMITED, priority 2022, published 2025)

What was measured:
human hepatocytes [1] = assay: In vitro metabolism identification study in human hepatocytes; conditions: for Relative Proportion of compounds identified: 5-MeO-DMT free base incubated up to 120 minutes at 10 μM; for Presence in subsequent assays: metabolites of 5-MeO-DMT
Procedure: For incubations with cryopreserved hepatocytes, the 2 mM stock solution was diluted with Leibovitz L-15 medium to a concentration of 20 μM or 2 μM. An aliquot (250 μL) of the 20 μM and 2 μM test substance formulations was added to each hepatocyte incubation sample (250 μL), as appropriate, so that the final test substance concentration in the incubations was 10 μM or 1 μM, respectively, and incubations contained less than 1% (v/v) solvent.
Incubations were performed at ca. 37° C. in a shaking water bath (total incubation volume 0.5 mL). For 1 μM, incubations were terminated after 0, 5, 10, 20, 30, 60 and 120 minutes, by the addition of ice-cold acetonitrile (0.5 mL).
The samples were vortex mixed and centrifuged at ca 13,000 rpm for 10 minutes at room temperature. Following centrifugation, the protein-free supernatants were removed for analysis.
Blank control incubations were carried out with Leibovitz L-15 medium in place of the test substance. No cells control samples were performed with Leibovitz L-15 medium in place of hepatocytes. Aliquots of the blank control samples were taken at 120 minutes, while no cells control samples were taken at 0, 30 and 120 for 1 μM incubations and at 0 and 120 minutes for 10 μM incubations.
All 1 μM incubations were performed in duplicate, while all 10 μM incubations were performed in singlet. All samples were stored at −80° C. (nominal) prior to analysis.
Prior to sample analysis a 100 μL aliquot of each sample was evaporated to near dryness under a steady stream of nitrogen at room temperature, and subsequently reconstituted in 50 μL of mobile phase A (0.1% formic acid in water). Each sample (0, 30 and 120-minute, 10 μM) was analysed using accurate mass LC-MS to determine relative levels of parent compound at each time-point, and determine the profile of metabolites formed. Appropriate blank and control samples were also analysed. The 10 and 60-minute, 10 μM incubation samples were not analysed and were stored at −80° C. (nominal).
Data were interrogated for the presence of metabolites by comparison of retention times with the test substance reference standard and based on the accurate masses of potential metabolites using screening software (UNIFI version 1.9.4), and user defined search parameters. To confirm a suspected metabolite, the measured accurate mass of the peak detected in the sample used for structural elucidation had to be within 5 ppm of the theoretical mass in order to confirm the molecular formula.

human plasma protein = assay: Plasma binding of 5-MIAA; type: in vitro ADME
Procedure: Binding to human plasma protein was determined. Reported are the unbound fraction (fu) for three replicates as well as the mean unbound fraction, the standard deviation and the mean % recovery (Table 8).

human hepatocytes [2] = assay: Metabolic stability in Hμrel co-culture assay with human hepatocytes; conditions: for Disappearance with stromal cell controls: stromal cells
[3] = Pharmacokinetics of 5-MeO-DMT and bufotenine after inhalation; type: in vivo, human
Procedure: Blood samples were obtained at 1; 2; 4; 7; 10; 15; 20; 30; 45 min and 1; 1.5; 2; 3; 4 hours after administration.
PK parameters were generated by algebraic analysis of the concentration versus time plots for each individual. The analysis was carried out using the software Phoenix WinNonlin 6.3.

Row | Compound | Relative Proportion of compounds identified (human hepatocytes [1]) | Presence in subsequent assays (human hepatocytes [1]) | Unbound fraction (fu) (human plasma protein; Replicate 1) | Unbound fraction (fu) (human plasma protein; Replicate 2) | Unbound fraction (fu) (human plasma protein; Replicate 3) | Disappearance with stromal cell controls (human hepatocytes [2]) | also measured
1 | COc1ccc2[nH]cc(CC(=O)O)c2c1 [5-MIAA, 5-methoxyindole-3-acetic acid] | 61% | predominant metabolite | 0.499 | 0.462 | 0.544 | no disappearance | Plasma binding (mean fraction unbound) (human plasma protein): ~50%; Time until all traces are removed from circulation for urinary excretion (human plasma protein; assuming glomerular filtration rate of 90-120 ml/min): 1 to 2 h; Mean fu (human plasma protein; three replicates): 0.502; Half-life (human hepatocytes [2]; human hepatocytes, 1 μM): 15 400 min; In vitro intrinsic clearance (human hepatocytes [2]; human hepatocytes, 1 μM): 0.15 μl/min/million cells
2 | COc1ccc2[nH]cc(CC[N+](C)(C)[O-])c2c1 [5-MeO-DMT-N-oxide] | 1% |  |  |  |  |  | 
3 | COc1ccc2[nH]cc(CCO)c2c1 [5-methoxytryptophol, 5-Methoxyindole-3-ethanol] | 25% | repeatedly failed to detect the presence |  |  |  | no disappearance | Time to complete disappearance (human hepatocytes [2]; in the presence of hepatocytes): 24 h
4 | CC(=O)CC(c1ccccc1)c1c(O)c2ccccc2oc1=O (stereo not shown) [Warfarin, reference compound] |  |  | 0.0418 | 0.0356 | 0.0358 |  | 
5 | CN(C)CCc1c[nH]c2ccc(O)cc12 [bufotenine] | 5% |  |  |  |  |  | Detection in human serum ([3]; after administration of 5-MeO-DMT): barely detected; Bufotenine blood concentration ([3]; from 15 min onwards after 5-MeO-DMT, LLOQ): < 25 pg/mL
